{"source": "ChEMBL document CHEMBL5046282", "about": "“Discovery of Brain-Penetrant Glucosylceramide Synthase Inhibitors with a Novel Pharmacophore” (J Med Chem, 2022)", "key": {"[1]": {"molecular_target": "Nav1.5 (Homo sapiens, UniProt Q14524)", "sequence (Q14524 whole entry)": "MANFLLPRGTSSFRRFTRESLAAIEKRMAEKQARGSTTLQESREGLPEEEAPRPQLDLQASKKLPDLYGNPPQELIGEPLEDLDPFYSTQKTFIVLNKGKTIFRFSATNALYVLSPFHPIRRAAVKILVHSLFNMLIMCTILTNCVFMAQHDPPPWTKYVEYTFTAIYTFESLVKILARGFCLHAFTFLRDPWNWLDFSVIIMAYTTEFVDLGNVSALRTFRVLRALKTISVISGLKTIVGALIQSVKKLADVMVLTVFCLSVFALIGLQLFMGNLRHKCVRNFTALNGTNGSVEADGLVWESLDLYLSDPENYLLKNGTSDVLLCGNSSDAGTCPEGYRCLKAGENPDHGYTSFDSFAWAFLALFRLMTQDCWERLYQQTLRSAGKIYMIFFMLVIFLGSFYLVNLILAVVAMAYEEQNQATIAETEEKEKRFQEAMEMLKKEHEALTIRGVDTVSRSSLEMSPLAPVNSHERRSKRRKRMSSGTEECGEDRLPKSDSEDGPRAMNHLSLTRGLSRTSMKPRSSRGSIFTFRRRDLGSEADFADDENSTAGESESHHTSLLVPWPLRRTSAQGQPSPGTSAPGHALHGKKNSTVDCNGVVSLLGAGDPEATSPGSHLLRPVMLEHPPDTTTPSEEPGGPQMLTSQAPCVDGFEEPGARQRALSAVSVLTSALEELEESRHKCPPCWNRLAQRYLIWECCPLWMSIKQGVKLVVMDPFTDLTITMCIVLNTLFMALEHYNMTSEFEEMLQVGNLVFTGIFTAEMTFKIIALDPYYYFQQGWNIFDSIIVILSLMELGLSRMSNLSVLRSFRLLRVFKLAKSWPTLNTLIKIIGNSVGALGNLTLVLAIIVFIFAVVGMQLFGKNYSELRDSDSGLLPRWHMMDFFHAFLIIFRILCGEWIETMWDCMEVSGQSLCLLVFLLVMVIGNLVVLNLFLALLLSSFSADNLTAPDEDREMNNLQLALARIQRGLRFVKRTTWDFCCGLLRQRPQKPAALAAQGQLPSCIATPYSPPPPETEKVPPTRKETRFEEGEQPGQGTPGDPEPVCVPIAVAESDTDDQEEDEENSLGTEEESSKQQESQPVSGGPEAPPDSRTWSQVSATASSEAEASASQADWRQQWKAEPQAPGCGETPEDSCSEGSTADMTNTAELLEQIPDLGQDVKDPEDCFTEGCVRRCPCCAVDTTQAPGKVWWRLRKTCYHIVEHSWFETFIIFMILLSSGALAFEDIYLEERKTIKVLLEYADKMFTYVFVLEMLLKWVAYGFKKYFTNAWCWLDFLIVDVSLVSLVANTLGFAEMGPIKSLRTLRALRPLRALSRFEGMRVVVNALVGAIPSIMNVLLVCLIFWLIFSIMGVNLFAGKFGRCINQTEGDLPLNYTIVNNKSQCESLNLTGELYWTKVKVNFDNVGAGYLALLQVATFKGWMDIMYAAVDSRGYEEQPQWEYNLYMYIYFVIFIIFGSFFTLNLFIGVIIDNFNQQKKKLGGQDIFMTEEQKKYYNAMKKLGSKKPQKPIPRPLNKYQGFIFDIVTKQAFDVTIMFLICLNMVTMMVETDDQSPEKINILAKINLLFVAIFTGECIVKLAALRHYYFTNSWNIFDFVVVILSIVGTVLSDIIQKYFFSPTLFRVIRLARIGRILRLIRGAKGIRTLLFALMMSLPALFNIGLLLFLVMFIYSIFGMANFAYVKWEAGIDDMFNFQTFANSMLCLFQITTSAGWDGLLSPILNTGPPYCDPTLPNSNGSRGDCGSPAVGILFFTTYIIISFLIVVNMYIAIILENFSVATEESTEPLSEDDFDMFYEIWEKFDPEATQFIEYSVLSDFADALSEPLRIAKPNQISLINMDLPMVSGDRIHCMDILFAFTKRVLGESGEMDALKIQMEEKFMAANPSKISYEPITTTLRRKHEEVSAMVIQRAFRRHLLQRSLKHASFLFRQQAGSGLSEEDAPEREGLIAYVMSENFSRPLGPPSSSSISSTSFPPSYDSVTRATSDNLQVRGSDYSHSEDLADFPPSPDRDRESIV", "assay": "Inhibition of human Nav1.5 at 30 uM by automated whole cell patch clamp assay", "format": "toxicity"}, "[2]": {"molecular_target": "Sodium-dependent serotonin transporter (Homo sapiens, UniProt P31645)", "sequence (P31645 whole entry)": "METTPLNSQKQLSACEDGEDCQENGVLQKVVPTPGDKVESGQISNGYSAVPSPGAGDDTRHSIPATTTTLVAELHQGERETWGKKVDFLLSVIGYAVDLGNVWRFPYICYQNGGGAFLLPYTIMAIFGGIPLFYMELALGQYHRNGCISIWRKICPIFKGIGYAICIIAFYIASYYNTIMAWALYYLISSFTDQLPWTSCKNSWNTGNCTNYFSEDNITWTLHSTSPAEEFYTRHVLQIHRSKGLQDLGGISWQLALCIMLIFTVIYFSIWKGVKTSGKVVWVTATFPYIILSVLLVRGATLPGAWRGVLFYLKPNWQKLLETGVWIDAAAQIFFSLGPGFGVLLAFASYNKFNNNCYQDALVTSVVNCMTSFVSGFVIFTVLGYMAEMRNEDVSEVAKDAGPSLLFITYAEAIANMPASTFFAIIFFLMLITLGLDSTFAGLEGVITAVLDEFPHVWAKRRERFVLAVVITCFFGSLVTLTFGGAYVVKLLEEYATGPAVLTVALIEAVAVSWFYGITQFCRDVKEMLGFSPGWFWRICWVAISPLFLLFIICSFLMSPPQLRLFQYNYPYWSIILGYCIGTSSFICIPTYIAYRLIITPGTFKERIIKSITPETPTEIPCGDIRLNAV", "assay": "Inhibition of human SERT", "format": "toxicity"}, "[3]": {"molecular_target": "T1, Lysosomal acid glucosylceramidase (Homo sapiens, UniProt P04062)", "T1 sequence (P04062 whole entry)": "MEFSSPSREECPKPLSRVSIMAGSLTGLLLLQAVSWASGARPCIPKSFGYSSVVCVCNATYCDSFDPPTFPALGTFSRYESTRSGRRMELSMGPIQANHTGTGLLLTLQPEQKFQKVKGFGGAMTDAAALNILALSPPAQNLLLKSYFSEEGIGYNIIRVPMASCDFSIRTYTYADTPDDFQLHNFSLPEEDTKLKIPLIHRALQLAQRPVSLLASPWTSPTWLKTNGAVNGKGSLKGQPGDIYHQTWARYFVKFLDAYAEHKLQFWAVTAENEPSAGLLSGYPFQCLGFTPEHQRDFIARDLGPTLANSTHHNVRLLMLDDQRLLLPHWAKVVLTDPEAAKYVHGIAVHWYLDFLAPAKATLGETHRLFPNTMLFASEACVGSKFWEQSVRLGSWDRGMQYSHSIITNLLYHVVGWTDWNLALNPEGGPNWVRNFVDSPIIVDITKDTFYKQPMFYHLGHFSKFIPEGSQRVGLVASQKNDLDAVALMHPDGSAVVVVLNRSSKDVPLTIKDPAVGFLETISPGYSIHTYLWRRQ", "assay": "Inhibition of human recombinant GCase using 4-methylumbelliferyl beta-D-glucopyranoside as substrate incubated for 20 mins by fluorescence-based analysis"}, "[4]": {"assay": "Cmax in non-fasted ICR mouse at 5 mg/kg, po by LC-MS/MS analysis", "format": "ADME, organism-based", "design": "route oral, dose 5 mg/kg", "settings": "in vivo"}, "[5]": {"assay": "Efflux ratio of apparent permeability from basolateral to apical side over apical to basolateral side in dog MDCK-MDR1 cells at 1 uM measured after 1 hr by LC-MS/MS analysis", "format": "ADME, cell-based, Canis lupus familiaris"}, "[6]": {"assay": "Fraction unbound in brain of non-fasted ICR mouse at 30 mg/kg, po measured after 1 hr by LC-MS/MS analysis", "format": "ADME, organism-based"}, "[7]": {"molecular_target": "hERG (Homo sapiens, UniProt Q12809)", "sequence (Q12809 whole entry)": "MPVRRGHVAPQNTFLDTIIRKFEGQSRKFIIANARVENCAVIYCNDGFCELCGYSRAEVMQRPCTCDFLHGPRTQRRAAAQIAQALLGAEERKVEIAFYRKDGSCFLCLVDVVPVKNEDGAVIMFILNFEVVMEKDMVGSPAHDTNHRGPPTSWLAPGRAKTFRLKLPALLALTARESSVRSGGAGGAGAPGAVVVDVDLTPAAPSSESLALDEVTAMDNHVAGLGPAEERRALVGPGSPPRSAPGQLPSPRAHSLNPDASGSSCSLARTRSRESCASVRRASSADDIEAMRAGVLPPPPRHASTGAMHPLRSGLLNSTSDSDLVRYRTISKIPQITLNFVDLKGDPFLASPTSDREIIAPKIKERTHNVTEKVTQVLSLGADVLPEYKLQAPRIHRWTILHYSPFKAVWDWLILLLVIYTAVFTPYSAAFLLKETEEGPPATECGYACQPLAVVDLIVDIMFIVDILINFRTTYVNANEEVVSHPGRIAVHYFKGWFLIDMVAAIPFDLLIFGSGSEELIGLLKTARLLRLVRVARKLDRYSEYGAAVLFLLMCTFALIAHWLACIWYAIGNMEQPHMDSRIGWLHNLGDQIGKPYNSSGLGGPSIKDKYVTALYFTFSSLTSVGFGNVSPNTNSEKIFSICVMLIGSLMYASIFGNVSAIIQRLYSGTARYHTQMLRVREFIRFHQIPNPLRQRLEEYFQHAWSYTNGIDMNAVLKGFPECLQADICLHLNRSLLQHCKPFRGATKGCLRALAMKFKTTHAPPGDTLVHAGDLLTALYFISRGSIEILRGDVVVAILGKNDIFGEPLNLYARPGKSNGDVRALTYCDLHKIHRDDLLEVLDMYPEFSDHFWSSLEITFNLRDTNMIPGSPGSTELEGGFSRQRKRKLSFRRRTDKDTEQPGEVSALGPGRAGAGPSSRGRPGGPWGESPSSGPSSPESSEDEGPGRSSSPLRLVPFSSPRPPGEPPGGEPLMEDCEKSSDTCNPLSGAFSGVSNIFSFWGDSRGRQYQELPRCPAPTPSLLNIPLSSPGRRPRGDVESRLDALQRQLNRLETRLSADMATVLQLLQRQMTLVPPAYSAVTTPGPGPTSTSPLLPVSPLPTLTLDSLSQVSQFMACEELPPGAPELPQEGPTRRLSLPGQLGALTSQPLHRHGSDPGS", "assay": "Inhibition of hERG expressed in CHO-K1 cells at 30 uM by automated whole cell patch clamp assay", "format": "toxicity, cell-based", "settings": "CHO-K1 cells expressing hERG"}, "[8]": {"test_system": "Mus musculus", "assay": "In vivo inhibition of GCS activity in po dosed C57BL/6J mouse assessed as reduction in GlcCer level in cerebral cortex measured after 6 hrs", "format": "functional, organism-based", "settings": "dose 30-300 mg/kg"}, "[9]": {"molecular_target": "T2, Ceramide glucosyltransferase (Mus musculus, UniProt O88693)", "T2 sequence (O88693 whole entry)": "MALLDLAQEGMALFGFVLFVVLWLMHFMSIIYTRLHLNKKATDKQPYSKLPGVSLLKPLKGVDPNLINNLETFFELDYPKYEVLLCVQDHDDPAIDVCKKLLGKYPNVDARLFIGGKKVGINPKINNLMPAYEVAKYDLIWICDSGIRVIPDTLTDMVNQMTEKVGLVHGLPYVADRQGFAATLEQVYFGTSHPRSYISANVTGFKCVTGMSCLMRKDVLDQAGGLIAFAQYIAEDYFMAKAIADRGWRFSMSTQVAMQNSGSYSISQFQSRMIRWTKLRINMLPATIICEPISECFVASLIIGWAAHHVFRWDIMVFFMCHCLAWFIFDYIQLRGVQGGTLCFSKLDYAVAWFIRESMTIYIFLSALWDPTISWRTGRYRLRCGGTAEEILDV", "assay": "Inhibition of mouse GCS using C8-ceramide and UDP-glucose as substrate incubated for 1 hr by RapidFire mass spectrometry"}, "[10]": {"assay": "1-Octanol/aqueous buffer partition coefficient, logD of the compound at pH 7.4 by chromatographic method", "format": "physicochemical"}, "[11]": {"molecular_target": "CYP2C9 (Homo sapiens, UniProt P11712)", "sequence (P11712 whole entry)": "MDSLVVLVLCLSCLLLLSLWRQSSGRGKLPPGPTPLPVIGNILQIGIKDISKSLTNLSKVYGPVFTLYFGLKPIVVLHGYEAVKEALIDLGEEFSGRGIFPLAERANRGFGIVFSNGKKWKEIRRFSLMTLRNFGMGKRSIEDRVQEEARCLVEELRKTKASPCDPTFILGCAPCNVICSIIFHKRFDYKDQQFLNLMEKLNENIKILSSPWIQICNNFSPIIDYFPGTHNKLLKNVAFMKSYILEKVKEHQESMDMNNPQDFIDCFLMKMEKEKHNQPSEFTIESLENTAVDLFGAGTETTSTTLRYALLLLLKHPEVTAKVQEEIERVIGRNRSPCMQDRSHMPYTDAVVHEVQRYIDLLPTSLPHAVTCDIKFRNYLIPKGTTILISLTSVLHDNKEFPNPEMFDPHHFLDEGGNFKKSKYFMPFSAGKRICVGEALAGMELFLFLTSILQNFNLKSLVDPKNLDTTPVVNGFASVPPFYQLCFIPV", "assay": "Inhibition of CYP2C9 in human liver microsomes using tolbutamide as substrate at 10 uM in presence of NADPH generating system incubated for 10 mins", "format": "ADME", "settings": "probe tolbutamide"}, "[12]": {"assay": "Cardiotoxicity in human iPSC-derived cardiomyocytes assessed as induction of proarrhythmic activity at 10 uM by Fluo-4 dye based fluorescence analysis", "format": "toxicity", "settings": "cardiac muscle cell"}, "[13]": {"assay": "Intrinsic clearance in mouse liver microsomes at 1 uM in presence of NADPH generating system assessed per mg protein by LC-MS/MS analysis", "format": "ADME, Microsome", "settings": "read-out: CLH"}, "[14]": {"assay": "Fraction unbound in plasma of non-fasted ICR mouse at 30 mg/kg, po measured after 1 hr by LC-MS/MS analysis", "format": "ADME, organism-based"}}}
{"smiles": "CC(C)(O)c1ccc(NC(=O)c2ccnn(-c3ccccc3OCC(F)(F)F)c2=O)cc1", "values": [{"measurement": "inhibition at 30 µM", "setting": "[1]", "result": 20, "unit": "%"}, {"measurement": "IC50", "setting": "[2]", "result": "> 10", "unit": "µM"}, {"measurement": "EC50", "setting": "[3]", "result": "> 300", "unit": "µM"}, {"measurement": "Cmax", "setting": "[4]", "result": 416, "unit": "ng/mL"}, {"measurement": "efflux ratio at 1 h, 1 µM", "setting": "[5]", "result": 8.8}, {"measurement": "fraction unbound at 1 h", "setting": "[6]", "result": 0.039}, {"measurement": "inhibition at 30 µM", "setting": "[7]", "result": 8, "unit": "%"}, {"measurement": "inhibition", "setting": "[8]", "result": "Dose-Dependent Effect"}, {"measurement": "IC50", "setting": "[9]", "result": 0.19, "unit": "µM"}, {"measurement": "chromatographic logD", "setting": "[10]", "result": 2.42}, {"measurement": "inhibition at 10 min, 10 µM", "setting": "[11]", "result": 24.9, "unit": "%"}, {"measurement": "Activity", "setting": "[12]", "result": "Non-Toxic"}, {"measurement": "microsomal CLint at 1 µM", "setting": "[13]", "result": 1, "unit": "µL/min/mg"}, {"measurement": "fraction unbound at 1 h", "setting": "[14]", "result": 0.23}]}
